Measurements reported in PubChem BioAssay (NCI).
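Cultured in 96-well plates, cells were exposed to test compound for 48 hours across five concentrations. TGI marks complete inhibition of growth.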

Legend:
Experiment in all cases: NCI-60 cell line screen, 48 h
EKVX NSCLC = tested on: EKVX NSCLC
SK-MEL-28 melanoma = tested on: SK-MEL-28 melanoma
SR leukemia = tested on: SR leukemia
SK-MEL-5 melanoma = tested on: SK-MEL-5 melanoma
KM12 colon = tested on: KM12 colon
NCI-H460 lung = tested on: NCI-H460 lung
SK-MEL-2 melanoma = tested on: SK-MEL-2 melanoma
NCI-H226 lung = tested on: NCI-H226 lung
MALME-3M melanoma = tested on: MALME-3M melanoma
PC-3 prostate = tested on: PC-3 prostate
SNB-19 CNS = tested on: SNB-19 CNS
T-47D breast = tested on: T-47D breast
A549 NSCLC = tested on: A549 NSCLC
HT29 colon = tested on: HT29 colon
SF-268 CNS = tested on: SF-268 CNS
HL-60(TB) leukemia = tested on: HL-60(TB) leukemia
A498 renal = tested on: A498 renal
HOP-92 NSCLC = tested on: HOP-92 NSCLC
NCI/ADR-RES ovarian = tested on: NCI/ADR-RES ovarian

SMILES | TGI (EKVX NSCLC) | TGI (SK-MEL-28 melanoma) | TGI (SR leukemia) | TGI (SK-MEL-5 melanoma) | TGI (KM12 colon) | TGI (NCI-H460 lung) | TGI (SK-MEL-2 melanoma) | TGI (NCI-H226 lung) | TGI (MALME-3M melanoma) | TGI (PC-3 prostate) | TGI (SNB-19 CNS) | TGI (T-47D breast) | TGI (A549 NSCLC) | TGI (HT29 colon) | TGI (SF-268 CNS) | TGI (HL-60(TB) leukemia) | TGI (A498 renal) | TGI (HOP-92 NSCLC) | TGI (NCI/ADR-RES ovarian)
c1ccc(N=C(N2CCOCC2)N(CCN2CCOCC2)c2ccccc2)cc1 | > 100 µM | > 100 µM | > 100 µM | > 100 µM | > 100 µM | > 100 µM | > 100 µM | > 100 µM | > 100 µM | > 100 µM | > 100 µM | > 100 µM | > 100 µM | > 100 µM | > 100 µM | – | – | – | –
Cc1c(C#N)c(N)[nH]c(=S)c1C#N | > 100 µM | > 100 µM | > 100 µM | > 100 µM | > 100 µM | > 100 µM | > 100 µM | > 100 µM | > 100 µM | > 100 µM | > 100 µM | > 100 µM | > 100 µM | > 100 µM | > 100 µM | > 100 µM | > 100 µM | – | –
CC(C)(Br)C(Br)CCC(=CCBr)CBr (mixture of isomers) | 49.7 µM | 6.86 µM | 4.69 µM | 12.4 µM | 10.2 µM | 9.9 µM | 9.32 µM | 28.3 µM | 13.5 µM | – | 31.1 µM | 8.53 µM | 28.3 µM | 9.16 µM | 4.85 µM | 2.15 µM | 44.6 µM | 13.3 µM | –
NC1OC(COC(=O)c2ccccc2)C(O)C(OC(=O)c2ccccc2)C1OC(=O)c1ccccc1 (stereo not given) | 60.2 µM | 42.7 µM | – | 27.5 µM | – | 27.9 µM | 96.7 µM | 43.1 µM | 36.3 µM | 58.2 µM | > 100 µM | > 100 µM | 48 µM | 32.5 µM | 67.4 µM | – | – | 59.1 µM | > 100 µM
Cc1n[n+](CC(=O)c2ccccc2)c2sc(N)nn12 | > 100 µM | > 100 µM | – | > 100 µM | > 100 µM | > 100 µM | > 100 µM | > 100 µM | > 100 µM | > 100 µM | > 100 µM | > 100 µM | > 100 µM | > 100 µM | > 100 µM | – | > 100 µM | – | > 100 µM
CCOc1cc2ccc3c4cc(OC)c(OC)cc4cnc3c2cc1OCC | > 100 µM | > 100 µM | – | > 100 µM | > 100 µM | > 100 µM | > 100 µM | – | > 100 µM | – | > 100 µM | – | > 100 µM | > 100 µM | > 100 µM | – | > 100 µM | – | –
CCCCOCn1c(=O)[nH]c(=O)c2ccccc21 | > 100 µM | > 100 µM | > 100 µM | > 100 µM | > 100 µM | > 100 µM | > 100 µM | > 100 µM | – | – | 55.5 µM | – | > 100 µM | > 100 µM | – | > 100 µM | > 100 µM | > 100 µM | > 100 µM
COc1ccc(/C=N/N=C(\N)NO)c(Cl)c1O | > 100 µM | > 100 µM | – | 40.6 µM | > 100 µM | – | 70.6 µM | 38.6 µM | > 100 µM | – | > 100 µM | – | 49.6 µM | – | > 100 µM | – | – | > 100 µM | –
O=C1CCCC2=C1CC1=C(CCCC1=O)N2c1ccccc1C(=O)O | > 100 µM | > 100 µM | > 100 µM | > 100 µM | > 100 µM | > 100 µM | – | > 100 µM | – | > 100 µM | > 100 µM | – | > 100 µM | > 100 µM | > 100 µM | > 100 µM | > 100 µM | > 100 µM | > 100 µM
CCC(=O)C1(N2CCOCC2)CCN(CCCC(=O)c2ccc(F)cc2)CC1 | > 100 µM | > 100 µM | – | > 100 µM | > 100 µM | > 100 µM | > 100 µM | > 100 µM | > 100 µM | > 100 µM | > 100 µM | > 100 µM | > 100 µM | > 100 µM | > 100 µM | > 100 µM | > 100 µM | – | > 100 µM
Cc1ccc(/C=N/Nc2nc3ccccc3s2)s1 | > 100 µM | > 100 µM | – | > 100 µM | > 100 µM | – | > 100 µM | > 100 µM | > 100 µM | > 100 µM | > 100 µM | > 100 µM | > 100 µM | > 100 µM | > 100 µM | > 100 µM | – | > 100 µM | > 100 µM
O=c1cc(-c2ccccc2)oc2cc(OCC(O)COc3ccc4c(=O)cc(-c5ccccc5)oc4c3)ccc12 | > 100 µM | > 100 µM | – | > 100 µM | > 100 µM | > 100 µM | 53.4 µM | – | > 100 µM | – | 53.6 µM | – | > 100 µM | > 100 µM | 90.3 µM | > 100 µM | > 100 µM | 95.5 µM | –
Oc1cccc(-c2ccc3c4c2O[C@H]2c5[nH]c6ccccc6c5C[C@@]5(O)[C@@H](C3)N(CC3CC3)CC[C@]425)c1 | 29.7 µM | – | – | 10.3 µM | 3.5 µM | – | 5.13 µM | 28.9 µM | 3.38 µM | 3.44 µM | 3 µM | – | 3.22 µM | 3.09 µM | 3.06 µM | 4.03 µM | – | 4.42 µM | 4.69 µM
CC(C)C1C(=O)NC(CO)Cc2c[nH]c3c(C(c4c[nH]c5ccccc45)C(O)CO)ccc(c23)N1C (stereo not given) | > 100 µM | > 100 µM | > 100 µM | > 100 µM | > 100 µM | > 100 µM | > 100 µM | – | – | – | > 100 µM | – | > 100 µM | > 100 µM | > 100 µM | > 100 µM | > 100 µM | > 100 µM | –
CCOC(=O)C[C@@H](C)[C@]1(C(=O)OC)CCCC1=O | > 100 µM | > 100 µM | 65.6 µM | > 100 µM | > 100 µM | > 100 µM | > 100 µM | > 100 µM | > 100 µM | – | > 100 µM | – | > 100 µM | > 100 µM | > 100 µM | > 100 µM | > 100 µM | > 100 µM | –
